Several values for one entry are separate records, joined by “and”; a condition that tells them apart may be missing. Identical values can stand only once.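 In this assay, cells in 96-well plates receive the compound at five concentrations for 48 hours. Endpoints are linearly interpolated between the surrounding concentrations. Abbreviation: GI50, concentration required for 50% inhibition of growth. TGI is the concentration that stops growth completely.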
Legend:
Experiment in all cases: DTP human tumour cell line panel, 48 h
786-0 renal = test system: 786-0 renal
IGROV1 ovarian = test system: IGROV1 ovarian
NCI-H522 lung = test system: NCI-H522 lung
COLO 205 colon = test system: COLO 205 colon
NCI-H226 lung = test system: NCI-H226 lung
CAKI-1 renal = test system: CAKI-1 renal
SF-539 CNS = test system: SF-539 CNS
HT29 colon = test system: HT29 colon

N=c1oc2ccc([N+](=O)[O-])cc2cc1C(=O)Nc1ccccn1
TGI (786-0 renal): 42.9 µM | TGI (IGROV1 ovarian): > 100 µM | TGI (NCI-H522 lung): 86.2 µM | TGI (COLO 205 colon): > 100 µM | TGI (NCI-H226 lung): > 100 µM | TGI (CAKI-1 renal): > 100 µM | TGI (SF-539 CNS): > 100 µM | TGI (HT29 colon): > 100 µM

O=CN(O)CC(=O)O.[Ni]
TGI (786-0 renal): > 100 µM | TGI (IGROV1 ovarian): > 100 µM | GI50 (NCI-H522 lung): > 100 µM | TGI (NCI-H522 lung): > 100 µM | TGI (COLO 205 colon): > 100 µM | TGI (NCI-H226 lung): > 100 µM | GI50 (CAKI-1 renal): > 100 µM | TGI (CAKI-1 renal): > 100 µM | TGI (SF-539 CNS): > 100 µM | TGI (HT29 colon): > 100 µM

CCOC(=O)CCC(NC(=O)c1ccc(OCc2ccc3nc(OC)c(OC)nc3c2)cc1)C(=O)OCC (stereo not drawn)
TGI (786-0 renal): > 100 µM | TGI (IGROV1 ovarian): > 100 µM | TGI (NCI-H522 lung): 64.8 µM | TGI (COLO 205 colon): 32.8 µM | TGI (NCI-H226 lung): > 100 µM | TGI (CAKI-1 renal): > 100 µM | TGI (SF-539 CNS): > 100 µM | TGI (HT29 colon): > 100 µM

NC(CCC(=O)NC(CSC(=O)N(O)c1ccc(Cl)cc1)C(=O)NCC(=O)O)C(=O)O (stereo not drawn)
TGI (786-0 renal): > 0.5 µM | TGI (IGROV1 ovarian): > 0.5 µM | TGI (NCI-H522 lung): > 0.5 µM | TGI (COLO 205 colon): > 0.5 µM | TGI (NCI-H226 lung): > 0.5 µM | TGI (CAKI-1 renal): > 0.5 µM | TGI (SF-539 CNS): > 0.5 µM | TGI (HT29 colon): > 0.5 µM

Cc1cc(O)c2c(c1)C(=O)C=C(Br)C2=O
TGI (786-0 renal): 31.3 µM | TGI (IGROV1 ovarian): > 60.2 µM | TGI (NCI-H522 lung): 7.34 µM | TGI (COLO 205 colon): 19.2 µM | TGI (NCI-H226 lung): 34.8 µM | TGI (CAKI-1 renal): 27.7 µM | TGI (SF-539 CNS): 29.8 µM | TGI (HT29 colon): 40.3 µM

CC(C)(C)C(=O)CC(=O)C(F)(F)C(F)(F)C(F)(F)F.CC(C)(C)C(=O)CC(=O)C(F)(F)C(F)(F)C(F)(F)F.CC(C)(C)C(=O)CC(=O)C(F)(F)C(F)(F)C(F)(F)F.[Er]
TGI (786-0 renal): > 100 µM | TGI (IGROV1 ovarian): > 100 µM | GI50 (NCI-H522 lung): 94 µM | TGI (NCI-H522 lung): > 100 µM | TGI (COLO 205 colon): > 100 µM | TGI (NCI-H226 lung): > 100 µM | TGI (CAKI-1 renal): > 100 µM | TGI (SF-539 CNS): > 100 µM | TGI (HT29 colon): > 100 µM

O=C(O)c1cccc(S(=O)(=O)NN2C(=O)CSC2c2ccccc2Cl)c1 (stereo not drawn)
TGI (786-0 renal): > 100 µM | TGI (IGROV1 ovarian): > 100 µM | TGI (NCI-H522 lung): > 100 µM | TGI (COLO 205 colon): > 100 µM | TGI (NCI-H226 lung): > 100 µM | TGI (CAKI-1 renal): > 100 µM | TGI (SF-539 CNS): > 100 µM | TGI (HT29 colon): > 100 µM

Cc1ccccc1C(=O)NC(O)(C(F)(F)F)C(F)(F)F
TGI (786-0 renal): > 100 µM | TGI (IGROV1 ovarian): > 100 µM | TGI (NCI-H522 lung): > 100 µM | TGI (COLO 205 colon): > 100 µM | TGI (NCI-H226 lung): > 100 µM | TGI (CAKI-1 renal): > 100 µM | TGI (SF-539 CNS): > 100 µM | TGI (HT29 colon): > 100 µM

Clc1cc2nnn(C3CCCCO3)c2cc1Cl (stereo not drawn)
TGI (786-0 renal): > 100 µM | TGI (IGROV1 ovarian): > 100 µM | TGI (NCI-H522 lung): > 100 µM | TGI (COLO 205 colon): > 100 µM | TGI (NCI-H226 lung): > 100 µM | TGI (CAKI-1 renal): > 100 µM | TGI (SF-539 CNS): > 100 µM | TGI (HT29 colon): > 100 µM

CCn1c(SCC(=O)NNC(=S)Nc2ccc(Cl)cc2)nc2ccccc2c1=O
TGI (786-0 renal): > 100 µM | TGI (IGROV1 ovarian): > 100 µM | TGI (NCI-H522 lung): > 100 µM | TGI (COLO 205 colon): > 100 µM | TGI (NCI-H226 lung): > 100 µM | TGI (CAKI-1 renal): > 100 µM | TGI (SF-539 CNS): > 100 µM

C[As](C)SCC(NC(=O)CCC(N)C(=O)O)C(=O)NCC(=O)O.Cl.c1ccncc1 (stereo not drawn)
TGI (786-0 renal): 1.3 µM | TGI (IGROV1 ovarian): 6.18 µM | TGI (NCI-H522 lung): 0.267 µM | TGI (COLO 205 colon): > 100 µM | TGI (NCI-H226 lung): 1.19 µM | TGI (CAKI-1 renal): 0.652 µM | TGI (SF-539 CNS): 2.09 µM

N#Cc1c(N)nc2c(N=Nc3ccccc3)c(N)nn2c1Nc1ccccc1
TGI (786-0 renal): 38.5 µM | TGI (IGROV1 ovarian): 29.3 µM | TGI (NCI-H522 lung): 39.9 µM | TGI (COLO 205 colon): 30.2 µM | TGI (NCI-H226 lung): 53.9 µM | TGI (CAKI-1 renal): 29.2 µM | TGI (SF-539 CNS): 47.2 µM | TGI (HT29 colon): 31.4 µM

CN(C)C=NCc1ccc2c(c1)OCO2
TGI (786-0 renal): > 100 µM | TGI (IGROV1 ovarian): > 100 µM | TGI (NCI-H522 lung): > 100 µM | TGI (COLO 205 colon): > 100 µM | TGI (NCI-H226 lung): > 100 µM | TGI (CAKI-1 renal): > 100 µM | TGI (SF-539 CNS): > 100 µM | TGI (HT29 colon): > 100 µM

Nc1nc(Cl)cc(NCC2(CO)CC(c3ccccc3)C2)n1 (stereo not drawn)
TGI (786-0 renal): > 100 µM | TGI (IGROV1 ovarian): > 100 µM | TGI (NCI-H522 lung): > 100 µM | TGI (COLO 205 colon): > 100 µM | TGI (NCI-H226 lung): > 100 µM | TGI (CAKI-1 renal): > 100 µM | TGI (SF-539 CNS): > 100 µM | TGI (HT29 colon): > 100 µM

COc1cc(CC(C)N[C@@H](C)c2ccccc2)cc(OC)c1 (stereo partly drawn)
TGI (786-0 renal): 17.3 µM and > 100 µM | GI50 (IGROV1 ovarian): 10.6 µM and > 100 µM | TGI (IGROV1 ovarian): 24.3 µM and > 100 µM | TGI (NCI-H522 lung): > 100 µM | GI50 (NCI-H226 lung): 15.1 µM and > 100 µM | TGI (NCI-H226 lung): 38.2 µM and > 100 µM | TGI (CAKI-1 renal): > 100 µM | TGI (SF-539 CNS): > 100 µM | TGI (HT29 colon): 13.1 µM and > 100 µM

CCSC1=C(C#N)C2(CCCCC2)C2=C(CC(C)(C)CC2=O)N1
TGI (786-0 renal): > 100 µM | TGI (IGROV1 ovarian): > 100 µM | TGI (NCI-H522 lung): > 100 µM | TGI (COLO 205 colon): > 100 µM | TGI (NCI-H226 lung): > 100 µM | TGI (CAKI-1 renal): > 100 µM | TGI (SF-539 CNS): > 100 µM | TGI (HT29 colon): > 100 µM

C=CCC1(O)C(=O)OC2C(O)COC21O (stereo not drawn)
TGI (786-0 renal): > 100 µM | TGI (IGROV1 ovarian): > 100 µM | TGI (NCI-H522 lung): > 100 µM | TGI (COLO 205 colon): > 100 µM | TGI (NCI-H226 lung): > 100 µM | TGI (CAKI-1 renal): > 100 µM | TGI (SF-539 CNS): > 100 µM | TGI (HT29 colon): > 100 µM

c1ccc(CNCCCNCCCCNCCCNCc2ccccc2)cc1
TGI (786-0 renal): 2.97 µM | TGI (IGROV1 ovarian): 5.58 µM | TGI (NCI-H522 lung): 3.37 µM | TGI (NCI-H226 lung): 17.2 µM | TGI (CAKI-1 renal): 23 µM | TGI (SF-539 CNS): 3.72 µM | TGI (HT29 colon): 5.86 µM

Cc1cc(O)c2cc3c(O)c(O)ccc3cc2c1
TGI (786-0 renal): > 47.8 µM | TGI (IGROV1 ovarian): 10.8 µM | TGI (NCI-H522 lung): 3.98 µM | TGI (COLO 205 colon): 1.46 µM | TGI (NCI-H226 lung): 5.63 µM | TGI (CAKI-1 renal): 6.63 µM | TGI (SF-539 CNS): 3.27 µM | TGI (HT29 colon): 8.43 µM

COC(=O)c1ccc(-n2c(C)nc(=O)c(-c3ccccc3)c2C)cc1
TGI (786-0 renal): > 100 µM | TGI (IGROV1 ovarian): > 100 µM | TGI (NCI-H522 lung): > 100 µM | TGI (COLO 205 colon): > 100 µM | TGI (NCI-H226 lung): > 100 µM | TGI (CAKI-1 renal): > 100 µM | TGI (SF-539 CNS): > 100 µM | TGI (HT29 colon): > 100 µM

CC(=O)[C@H]1[C@@H](OCc2ccccc2)O[N+]([O-])=C(C)[C@@H]1c1ccccc1
TGI (786-0 renal): 31.4 µM | TGI (IGROV1 ovarian): > 100 µM | TGI (NCI-H522 lung): 26.4 µM | TGI (COLO 205 colon): > 100 µM | TGI (NCI-H226 lung): > 100 µM | TGI (CAKI-1 renal): 52 µM | TGI (SF-539 CNS): 45.5 µM | TGI (HT29 colon): 33.8 µM

CC(C)(C)OC(=O)N1CCCC1C(=O)NCCNc1ccc(NCCNC(=O)C2CCCN2C(=O)OC(C)(C)C)c2c1C(=O)c1ccccc1C2=O (stereo not drawn)
TGI (786-0 renal): 28 µM | TGI (IGROV1 ovarian): 31.7 µM | TGI (NCI-H522 lung): 29.7 µM | TGI (COLO 205 colon): 27.5 µM | TGI (NCI-H226 lung): 46.6 µM | TGI (CAKI-1 renal): 36.9 µM | TGI (SF-539 CNS): 30.1 µM | TGI (HT29 colon): 38.2 µM

CC(=O)c1c2c(cc3c1CC1(C3)Cc3ccc4c(c3C1=O)CCC4)CCC2 (stereo not drawn)
TGI (786-0 renal): > 100 µM | TGI (IGROV1 ovarian): > 100 µM | TGI (NCI-H522 lung): 9.51 µM | TGI (COLO 205 colon): 39.3 µM | TGI (NCI-H226 lung): > 100 µM | TGI (CAKI-1 renal): > 100 µM | TGI (SF-539 CNS): > 100 µM | TGI (HT29 colon): > 100 µM

COc1ccc2[nH]c3c(C)c4ccnc(NCCCN(C)CCCN)c4c(C)c3c2c1
TGI (786-0 renal): 0.39 µM | TGI (IGROV1 ovarian): 0.678 µM | TGI (NCI-H522 lung): 0.137 µM | TGI (COLO 205 colon): 0.253 µM | TGI (NCI-H226 lung): 0.223 µM | TGI (CAKI-1 renal): 0.551 µM | TGI (SF-539 CNS): 0.28 µM | TGI (HT29 colon): 0.17 µM

— PubChem BioAssay (NCI)
